Test results from US20210283215A1, “BACTERIOTHERAPY AGAINST PROPRIONIBACTERIUM ACNES FOR THE TREATMENT OF ACNE” (The Regents of the University of California, priority 2018, published 2021).

System: C. acnes C2
Assay: Inhibition of C. acnes C2 growth, 72 h culture
Assay type: cell-based
Conditions: C. acnes C2, 72 h culture

| Substance | concentration inhibiting growth of C. acnes [µg/mL] |
| --- | --- |
| PSMβ1: phenol soluble modulin beta peptide of S. capitis E12, SEQ ID NO: 9437, individually synthesized (MTKLAEAIANTVKAGQDHDWAKLGTSIVGIAENGIGLLGKVFGF; listed as Staphylococcus capitis) | 62 |
| PSMβ4: phenol soluble modulin beta peptide of S. capitis E12, SEQ ID NO: 9443, individually synthesized (MTKLAEAIANAVKAGQDQDWAKLGTSIVGIAENGISLLGKVFGF; listed as Staphylococcus capitis) | 125 |
| PSMβ6: phenol soluble modulin beta peptide of S. capitis E12, SEQ ID NO: 9447, individually synthesized (MEKLFDAIRNTVDAGINQDWTKLGTSIVDIVDNGVKVISKFIGA; listed as Staphylococcus capitis) | 62 |
